Molecular target: T1, Type I Ins(1,4,5)P3 5-phosphatase (Homo sapiens, UniProt Q14642)
T1 sequence (Q14642 1-412 limits assumed): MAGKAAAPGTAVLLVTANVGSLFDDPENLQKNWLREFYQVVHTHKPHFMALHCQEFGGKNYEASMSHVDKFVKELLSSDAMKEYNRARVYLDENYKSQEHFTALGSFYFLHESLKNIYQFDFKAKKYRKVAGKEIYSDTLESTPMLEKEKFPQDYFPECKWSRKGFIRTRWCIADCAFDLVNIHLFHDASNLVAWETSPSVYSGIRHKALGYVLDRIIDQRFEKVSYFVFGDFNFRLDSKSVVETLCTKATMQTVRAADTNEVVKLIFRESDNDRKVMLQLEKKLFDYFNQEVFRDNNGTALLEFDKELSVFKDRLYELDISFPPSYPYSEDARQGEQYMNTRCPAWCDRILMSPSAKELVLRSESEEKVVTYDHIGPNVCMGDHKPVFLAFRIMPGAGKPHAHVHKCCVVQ
Assay: [3H]Ins
Format: biochemical

## O=P(O)(O)Oc1ccc(OP(=O)(O)O)c(OP(=O)(O)O)c1OCc1ccccc1 [compound 30, 3-benzyloxybenzene 1,2,4-trisphosphate]
  IC50: 68 ± 16 µM
